Assay results from publication PMC9246869, “Allosteric inhibition of PPM1D serine/threonine phosphatase via an altered conformational state” (Nature Communications, 2022).
Values joined by “and” are separate entries in the source; they are usually repeats but may differ in a detail not shown here. Identical values can stand only once.

What was measured:
[1] = target: T1, PPM1D1–420 (Homo sapiens, UniProt O15297); assay: Differential scanning fluorimetry (DSF); type: binding; design: key to DSF Trial 1 (Tm) / DSF Trial 2 (Tm) / DSF Trial 3 (Tm) / DSF average (Tm) / DSF melting temperature with GSK2830371 / DSF melting temperature with GSK2830371, Average: melting temperature Tm in °C
T1 construct: PPM1D1–420 was PCR-amplified from the synthesized gene with BsaI sites; His(6)-SUMO (N, cleaved yes); made in house; host or cells: E. coli BL21 (DE3)
T1 sequence (O15297 1-420): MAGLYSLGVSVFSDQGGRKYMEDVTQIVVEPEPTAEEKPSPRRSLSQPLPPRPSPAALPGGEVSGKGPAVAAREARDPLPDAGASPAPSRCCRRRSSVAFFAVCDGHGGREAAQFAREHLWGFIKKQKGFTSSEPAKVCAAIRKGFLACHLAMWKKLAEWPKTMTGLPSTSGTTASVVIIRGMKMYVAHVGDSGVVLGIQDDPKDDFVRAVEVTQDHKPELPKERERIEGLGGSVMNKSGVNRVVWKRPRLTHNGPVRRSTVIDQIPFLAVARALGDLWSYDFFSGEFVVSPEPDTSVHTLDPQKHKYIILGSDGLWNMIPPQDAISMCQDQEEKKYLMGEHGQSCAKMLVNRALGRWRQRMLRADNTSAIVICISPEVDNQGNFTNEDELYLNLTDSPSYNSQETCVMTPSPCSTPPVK
Description: (§1) The purified protein constructs were mixed in the assay buffer containing 25 mM HEPES pH 7.5, 10 mM MgCl2, 150 mM NaCl. The sample preparation for the DSF assay included incubating the protein constructs (final concentration 0.2–0.4 mg/mL) with either DMSO alone (control) or with 40 µM GSK2830371 for 30 min before the addition of the Sypro orange dye (final concentration 10×). The final reaction volume of 10 µL was pipetted into a 384 multi-well clear plate (Light Cycler 480), sealed using a foil and spun down at 1000 × g for 2 min. The fluorescence emission intensity of the Sypro Orange dye was monitored in a LightCycler-480 instrument by running the Protein Melt program. The program was run in a continuous acquisition mode from 25 °C to 95 °C with a ramp rate of 0.06 °C/s (with 10 acquisitions/°C). The data (first derivative of the fluorescence signal as a function of temperature) was analyzed using the LightCycler-480 software for measuring the Tm values with and without the compound. A separate control with buffer alone and buffer with compound was run in the same plate to subtract out the potential interactions of the buffer components and/or the compound with the dye.

[2] = target: T1, PPM1D1–420; assay: Isothermal titration calorimetry (ITC); type: binding; design: DH / DS: unit not given here; details: Fig 3F
Description: Assessments of the analog of GSK2830371 (analog 1d) binding to wild-type and mutant proteins were conducted using an Auto-iTC200 microcalorimeter (Malvern) (see section on synthesis of analog 1d below). The protein was dialyzed extensively into 25 mM HEPES (pH 7.4), 150 mM NaCl, 10 mM MgCl2 and 1 mM TCEP. The dialyzed protein was used to prepare fresh working solutions of protein (20 µM) and analog 1d (200 µM) in 2% DMSO (v/v) in the same buffer. Titrations were performed at 25 °C and consisted of a single initial injection of 0.4 µL, followed by 19 injections of 2 µL of compound into a sample cell containing wild-type or mutant PPM1D, with an interval of 150 s between successive injections. The reference power and stirring speed were set at […] and 1000 RPM, respectively. Heat of dilution and mixing were obtained from injections of analog 1d into ITC buffer lacking protein and subtracted from the integrated data before curve fitting. Thermodynamic data were analyzed using Origin 7.0 software and fitted by non-linear regression to the model for a single binding site.

[3] = Solubility; type: physicochemical; details: precluded ITC
[4] = target: T2, PPM1DΔflap (Homo sapiens, UniProt O15297, DEL219-231/DEL235-284/E287S/S285N); assay: Differential scanning fluorimetry (DSF); type: binding; details: PPM1D Dflap, individual trials; in °C (unit assumed)
T2 construct: PPM1D1–218-GGSNGS-288–420 (PPM1D∆flap); His(6)-SUMO (N, cleaved yes); made in house; host or cells: E. coli BL21 (DE3)
T2 sequence (O15297 with tags, fused parts or gaps DEL219-231/DEL235-284/S285N/E287S): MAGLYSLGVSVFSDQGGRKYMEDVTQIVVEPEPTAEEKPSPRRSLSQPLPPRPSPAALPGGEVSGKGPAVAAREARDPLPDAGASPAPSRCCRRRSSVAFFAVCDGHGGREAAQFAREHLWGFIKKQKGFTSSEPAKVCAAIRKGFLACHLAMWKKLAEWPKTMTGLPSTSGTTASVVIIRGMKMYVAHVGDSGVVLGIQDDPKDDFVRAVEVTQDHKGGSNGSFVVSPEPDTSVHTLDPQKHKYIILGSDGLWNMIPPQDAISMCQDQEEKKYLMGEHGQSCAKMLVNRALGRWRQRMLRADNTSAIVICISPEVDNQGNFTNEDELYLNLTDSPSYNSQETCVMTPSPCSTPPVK
Description: as §1

[5] = target: T3, PPM1DΔhinge (Homo sapiens, UniProt O15297, DEL155-163/G166S/M164G/T165G); assay: Differential scanning fluorimetry (DSF); type: binding; details: PPM1D Dhinge, in °C (unit assumed)
T3 construct: PPM1D1–154-GGS-167–420 (PPM1D∆hinge); His(6)-SUMO (N, cleaved yes); made in house; host or cells: E. coli BL21 (DE3)
T3 sequence (O15297 with tags, fused parts or gaps DEL155-163/M164G/T165G/G166S): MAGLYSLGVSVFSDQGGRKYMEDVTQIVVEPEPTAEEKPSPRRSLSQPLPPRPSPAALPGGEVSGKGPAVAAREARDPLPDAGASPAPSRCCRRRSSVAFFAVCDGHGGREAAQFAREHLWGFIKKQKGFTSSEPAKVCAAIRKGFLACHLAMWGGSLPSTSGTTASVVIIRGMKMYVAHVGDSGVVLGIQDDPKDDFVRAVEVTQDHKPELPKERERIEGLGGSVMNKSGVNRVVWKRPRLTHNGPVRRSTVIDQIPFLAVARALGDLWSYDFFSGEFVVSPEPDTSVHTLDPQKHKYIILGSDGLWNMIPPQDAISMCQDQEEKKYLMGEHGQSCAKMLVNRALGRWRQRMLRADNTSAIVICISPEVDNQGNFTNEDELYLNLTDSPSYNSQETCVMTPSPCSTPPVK
Description: as §1

[6] = source data Fig 3C, with GSK, in °C (unit assumed)

For `Cc1ncc(Cl)cc1NCc1ccc(C(=O)N[C@@H](CC2CCCC2)C(=O)NC2CC2)s1` [GSK2830371], the “DSF melting temperature with GSK2830371, Average” value ([1]; PPM1D 1-420, average of 4 trials, in °C (unit assumed)) was 59.7917, the “DSF melting temperature with GSK2830371” value ([1]; PPM1D 1-420, individual trials, in °C (unit assumed)) was 59.846 and 59.6596 and 59.8596 and 59.8015 and the ΔTm at 40 µM ([1]; PPM1D1–420, 40 µM compound, read-out: thermal shift by DSF) was about 8 °C. For the same compound, the “DSF Trial 1 (melting temperature)” value ([1]; Sup Fig 2D, protein with GSK vs WT (DMSO), trial 1) was 59.84 ˚C, the “DSF Trial 2 (melting temperature)” value ([1]; Sup Fig 2D, protein with GSK vs WT (DMSO), trial 2) was 59.65 ˚C and the “DSF Trial 3 (melting temperature)” value ([1]; Sup Fig 2D, protein with GSK vs WT (DMSO), trial 3) was 59.85 ˚C. The “DSF Average (melting temperature)” value ([1]; Sup Fig 2D, protein with GSK, average of trials) was 59.78 ˚C, the “DSF average (Tm)” value ([1]; source data Fig 3C, with GSK, column head empty, in °C (unit assumed)) was 59.78 and the “DSF Trial 1 (Tm)” value [1, 6] was 59.84. The “DSF Trial 2 (Tm)” value [1, 6] was 59.65, the “DSF Trial 3 (Tm)” value [1, 6] was 59.85 and the DH ([2]; Average of 3 trials) was -3090.67. For the same compound, the DS ([2]; Average of 3 trials) was 26.3, the DH ([2]; individual trials) was -2879 and -3158 and -3235 and the DS ([2]; individual trials) was 27.7 and 25.8 and 25.4. For the same compound, the “solubility (in words)” value [3] was “relatively low solubility”, the “DSF melting temperature with GSK2830371” value [4] was 63.0141 and 62.619 and 62.5754 and 62.548 and the “DSF melting temperature with GSK2830371, Average” value ([5]; average of 4 trials) was 55.5129. For the same compound, the “DSF melting temperature with GSK2830371” value ([5]; individual trials) was 55.7617 and 55.9693 and 55.1773 and 55.1434.
